Measured values published in US8809344B2, “Compounds, compositions, and methods for control of hepatitis C viral infections” (priority 2008, dated 2014).

Legend:
[1] = test system: HCV genotype 1b subgenomic replicon (Con1 strain); assay: microbe, parasite or virus in culture; format: cell-based; conditions: Hepatitis C virus; 24 hours post-treatment; Renilla luciferase; Huh7.5 cells
Description: The replicon used in these studies was a transient genotype 1b subgenomic replicon generated from the Con1 strain. In this replicon, the HCV internal ribosome entry site (IRES) within the 5′ non-translated region (NTR) drives expression of the first 32 amino acids of the core protein fused to humanized Renilla luciferase (hRluc). The encephalomycarditis IRES lies 3′ to the hRluc open reading frame (ORF) and drives expression of non-structural (NS) proteins NS3 through NS5B. Huh7.5 cells (U.S. patent application Ser. No. 10/534,571) harboring this replicon were seeded into 96-well plates at 20,000 cells per well in medium containing 10% FBS, 1× penicillin/streptomycin, 1× non-essential amino acids, and 100 ng/ml Fungizone. After a four hour attachment period, compound was added to wells using a five point 3-fold serial dilution series with four replicate treatments per dose. Final DMSO percentage was 1% in a total volume of 200 ul. Compound-mediated HCV inhibition and toxicity were assayed 24 hours post-treatment using Renilla luciferase readout and an ATP viability assay (CellTiter-Glo, Promega, Madison, Wis., USA), respectively.

[2] = Neutral red dye uptake cytotoxicity assay; format: cell-based; conditions: human, Experiment 3
Protocol: Inhibition of HCV replication by compound AP0080978 (enantiomer 2 from Example 1) was also assayed by exposing cells harboring either HCV genotype 1a, HCV genotype 1b, HCV genotype 2a replicons. […] Final DMSO percentage was 1% in a total volume of 1 ml. After a 72 hour treatment period, total RNA was extracted, quantified via RiboGreen™ assay (Invitrogen-Molecular Probes, Eugene, Oreg., USA), and equivalent amounts of RNA were subjected to quantitative RT-PCR to quantify HCV RNA levels. Activity against genotype 1b was re-confirmed using Clone II cells (U.S. Pat. No. 7,049,428) that contain a stable subgenomic replicon (Con1 strain) with a Arg 1164 Gly adaptive mutation that is distinct from the Ser 1179 Ile adaptive mutation present in Clone VI cells. In this assay, cells were seeded into 96-well plates and treated in quadruplicate with varying concentration of compounds for 72 hours. For each replicate culture, HCV RNA levels were measured by blot hybridization and normalized to β-actin RNA levels. Cytotoxicity was measured using an established neutral red dye uptake assay (Korba and Gerin (1992) Antiviral Res 19:55; Okuse et al (2005) Antiviral Res 65: 23). […] Activity and toxicity against genotype 2a was evaluated in Huh7 cells harboring a stable hRluc-containing subgenomic genotype 2a replicon containing sequence from both J6 and JFH1 strains. […]

[3] = test system: stable genotype 1b (Con1 strain) subgenomic replicon in control Clone A cells; assay: Control Clone A cells, HCV RNA by quantitative RT-PCR; format: cell-based; conditions: Hepatitis C virus, 72 h
Protocol: In an effort to gain insight into the target of 80978, Clone A cells were selected for resistance to 80978. Clone A cells are a human hepatoma cell line that contains a stable genotype 1b (Con1 strain) subgenomic replicon. Cells were cultured for 12 days in medium containing 10 μM 80978 and 1 mg/ml Geneticin™ (Invitrogen). Medium was changed every 3-4 days to replenish compound, and cells were split as needed to maintain subconfluent cultures. After 12 days of growth in the presence of 10 μM 80978, the concentration of 80978 was increased to 20 μM and cultured for an additional 19 days. Control Clone A cells were grown in parallel in the presence of diluent only. After this culture period, cells were evaluated for response to 80978.
Control cells and cells that had been cultured in the presence of 80978 were treated in triplicate with 3-fold serial dilutions of compound for 72 hours. At the end of this incubation period, total RNA was extracted, and HCV RNA levels were measured by quantitative RT-PCR using primers that recognize the 3′NTR.

[4] = test system: genotype 2a replicon with the L1809F mutation; assay: Genotype 2a replicon with L1809F mutation; format: cell-based; conditions: Hepatitis C virus
Protocol: Since leucine at amino acid 1809 in the genotype 1b replicon was mutated from a phenylalanine residue to a leucine or a valine residue to confer resistance to 80978, and the residue at the corresponding position in the parental genotype 2a replicon is leucine, mutagenesis was carried out to determine whether a phenylalanine at this position in the genotype 2a replicon was sufficient to confer sensitivity to 80978.

[5] = test system: chimeric APV23 (FL-J6/JFH) genotype 2a HCV; assay: HCV APV23 viral infectivity assay in Huh7.5 cells, 3′NTR RNA by realtime quantitative PCR; format: cell-based, hepatitis C virus; conditions: FIG. 6, genotype 2a NS4B coding region
Protocol: Inhibition of HCV infectivity by AP0080978 and its analogs (AP0080977, non-active enantiomer; AP0089652, racemate; and AP0080935, an aromatic, non-optically active analog of AP0080978) was assayed by exposing cells with infectious chimeric HCV virions in the presence of the compounds. This was accomplished by use of an HCV cell culture system essentially as described in Pietschmann, T. et al. (2006) 103(19): 7408-13, Proc. Natl. Acad. Sci. USA; and elsewhere. Two viral constructs were utilized to characterize inhibition of viral infectivity (FIG. 4). Construct APV23 (FL-J6/JFH) is a full-length, chimeric, genotype 2a HCV genome containing the HCV core through the NS2 first transmembrane domain coding region from the J6 HCV isolate linked to the second NS2 transmembrane domain NS3 through NS5B coding region of HCV strain JFH-1, as shown in FIG. 4 (i.e. an HCV chimera with the “C3 Junction” described in Pietschmann, T. et al. (2006) Proc. Natl. Acad. Sci. USA 103(19): 7408-13; see page 7409 and FIG. 2A of Pietschmann, T. et al.). Construct APV112 was generated by replacing nucleotides encoding amino acids 53 to 218 of the NS4B gene of the APV23 sequence with a corresponding sequence from a genotype 1b (Con1 strain).
Huh7.5 cells were plated at a density of 20,000 cells per well in 96-well plates. The cells were exposed to the chimeric HCV virions at a multiplicity of infection of 0.01. Potential inhibitory compounds were added simultaneously with the chimeric virus. Cells were incubated for 48 hours and then the levels of HCV 3′NTR and GAPDH RNA were quantified by realtime quantitative PCR. Data were analyzed by the comparative Ct method with delta-delta Ct determined relative to 1.0% DMSO. Results in FIGS. 5 and 6 are depicted as log change in 3′NTR copies relative to 1.0% DMSO.

Question: Which EC50 [1] does the source give for `O=C(NCc1cccs1)c1nn2c(c1Cl)N[C@H](c1ccco1)C[C@@H]2C(F)(F)F` (single isomer, unassigned) [Compound 80978] here?
Answer: Its EC50 is 1800 nM.

Question: What about the CC50 at 72 h [2] of the same molecule?
Answer: Its CC50 at 72 h is > 20000 nM.

Question: And the EC50 [3]?
Answer: The EC50 was 1760 nM.

Question: What about the EC50 [4] of the same molecule?
Answer: The EC50 was > 25000 nM.

Question: And the “chimeric APV23 viral infectivity” value ([5]; listed as AP 80978)?
Answer: Its value is “resistant”.

Question: What about the “chimeric APV23 viral infectivity” value ([5]; listed as AP0080978) of the same molecule?
Answer: Its value is “unaffected”.
